From US12338203B2 (TAISHO PHARMACEUTICAL CO., LTD., priority 2019, dated 2025)

Molecular target: T1, human LPAR1 (Homo sapiens, UniProt Q92633)
T1 construct: expressed in transfected cells
Test: Test Example 1: antagonism against response of LPA-induced increase in intracellular Ca2+ concentration in RH7777 cells stably expressing human LPAR1
Type: cell-based
Conditions: RH7777 cells stably expressing human LPAR1; Fluo-4 fluorescence, FDSS6000; read-out: IC50 value (concentration producing 50% antagonism against response of LPA-induced increase in intracellular Ca2+ concentration) (converted)
How it was run: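 Ca2+ flux read at 540 nm emission (480 nm excitation) after LPA addition to human LPAR1-expressing RH7777 cells exposed to compound for 30 min, 37 °C, pH 7.4 HEPES-buffered HBSS. Response relative to no-compound control after basal subtraction; IC50 fitted from concentration–response.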

T1 sequence (Q92633 whole entry): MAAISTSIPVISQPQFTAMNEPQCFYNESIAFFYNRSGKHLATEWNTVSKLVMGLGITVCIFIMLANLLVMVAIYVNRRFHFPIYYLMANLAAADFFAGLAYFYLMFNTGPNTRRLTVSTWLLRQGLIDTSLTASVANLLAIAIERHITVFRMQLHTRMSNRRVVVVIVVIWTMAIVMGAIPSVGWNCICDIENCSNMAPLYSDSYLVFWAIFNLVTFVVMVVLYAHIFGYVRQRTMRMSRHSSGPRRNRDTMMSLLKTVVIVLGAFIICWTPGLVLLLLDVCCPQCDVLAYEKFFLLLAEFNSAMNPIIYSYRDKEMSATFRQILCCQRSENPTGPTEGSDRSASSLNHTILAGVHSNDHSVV

| Structure (SMILES) | IC50 [nM] |
| --- | --- |
| CCOc1cc(CN(CCCCc2ccccc2)C(=O)NC2(C(=O)O)CCCC2)cc(OCC)c1C [Example 3-2] | 85.8 |
| CCOc1cc([C@@H](C)N(CCCC(F)(F)c2ccccc2)C(=O)NC2(C(=O)O)CC(F)(F)C2)cc(OCC)c1C1(O)CC1 [Example 4-57] | 4.47 |
| CCOc1cc([C@@H](C)N(CCCCc2ccccc2)C(=O)NC2(C(=O)O)CCOCC2)cc(OCC)c1C(C)=O [Example 1-151] | 3.57 |
| CCOc1cc(C(C)N(CCCCc2ccccc2)C(=O)NC2(C(=O)O)CC(F)(F)C2)cc(OCC)c1C(C)O (centres unmarked) [Example 1-34] | 1.99 |
| CCOc1cc([C@@H](C)N(CCCCc2ccccc2)C(=O)NC2(C(=O)O)CC(N3CCN(C)CC3)C2)cc(OCC)c1C (some centres unmarked) [Example 1-109] | 312 |
| CCOc1cc(C(C)N(CCCCc2ccccc2)C(=O)NC2(C(=O)O)CCCC2)cc(OC(C)C)c1C (centres unmarked) [Example 1-114] | 128 |
| CCOc1c(C(C)=O)ccc([C@@H](C)N(CCCC(F)(F)c2ccccc2)C(=O)NC2(C(=O)O)CCC2)c1C [Example 4-54] | 3.75 |
| CCOc1cc(C(C)N(CCCc2cccc(F)c2)C(=O)NC2(C(=O)O)CC(F)(F)C2)cc(OCC)c1C (centres unmarked) [Example 4-7] | 25.2 |
| CCOc1cc([C@@H](C)N(CCCC(F)(F)c2ccccc2)C(=O)NC2(C(=O)O)CCC2)cc(OCC)c1C(C)=O [Example 4-50] | 1.21 |
| CCOc1cc(C(C)N(CCCCc2ccccc2)C(=O)NC2(C(=O)O)CC(F)(F)C2)cc(O)c1C(C)=O (centres unmarked) [Example 1-62, 1-({[1-(4-Acetyl-3-Ethoxy-5-Hydroxyphenyl)Ethyl](4-Phenylbutyl) Carbamoyl}Amino)-3,3-Difluorocyclobutane-1-Carboxylic Acid] | 6.76 |
| CCOc1cc(C(C)N(CCCCc2ccccc2)C(=O)NC2CCC(C(=O)O)C2)cc(OCC)c1C(C)=O (centres unmarked) [Example 1-139] | 3.09 |
| CCOc1cc([C@@H](C)N(CCCC(F)(F)c2ccccc2)C(=O)N[C@]2(C(=O)O)C[C@@H](OC)C2)cc(OCC)c1C(C)=O [Example 4-64] | 2.69 |
| CCOc1cc([C@@H](C)N(CCO[C@@H](C)c2ccccc2)C(=O)NC2(C(=O)O)CC2)cc(OCC)c1C1CC1 [Example 4-112] | 1.49 |
| CCOc1cc([C@@H](C)N(CCCC(F)(F)c2ccccc2)C(=O)NC2(C(=O)O)CCC2)cc(OCC)c1C(C)O (some centres unmarked) [Example 4-53] | 1.72 |
| COc1cc(C(C)N(CCCn2cc(C)cn2)C(=O)NC2(C(=O)O)CC(F)(F)C2)cc(OC)c1C (centres unmarked) [Example 4-26] | 1830 |
| CCOc1cc([C@@H](C)N(CCCC(F)(F)c2ccccc2)C(=O)NC2(C(=O)O)CC(F)(F)C2)cc(OCC)c1C [Example 4-58] | 1.15 |
| CCOc1c(C(C)=O)ccc([C@@H](C)N(CCO[C@@H](C)c2ccccc2)C(=O)NC2(C(=O)O)CC(OC)C2)c1C (some centres unmarked) [Example 4-131] | 10.3 |
| CCOc1cc([C@@H](C)N(CCO[C@@H](C)c2ccccc2Cl)C(=O)NC2(C(=O)O)CC(F)(F)C2)c(Cl)c(OCC)c1C(C)=O [Example 4-175] | 3.47 |
| CCOc1cc([C@@H](C)N(CCCCc2ccccc2)C(=O)NC2(C(=O)O)CC(OCC)C2)cc(OCC)c1C(C)O (some centres unmarked) [Example 1-98] | 4.33 |
| CCOc1cc(C(C)N(CCCCc2ccccc2)C(=O)NC2(C(=O)O)CC(F)(F)C2)cc(OCC)c1C1(O)CC1 (centres unmarked) [Example 1-37] | 3.45 |
| CCOc1cc([C@@H](C)N(CCCCc2ccccc2)C(=O)NC2(C(=O)O)CC3(CCC3)C2)cc(OCC)c1C [Example 1-121] | 9.23 |
| CCOc1cc(C(C)N(CCCCc2ccccc2)C(=O)NC2(C(=O)O)CC(F)(F)C2)cc(OCC)c1C(=O)OC (centres unmarked) [Example 1-60] | 5.46 |
| CCOc1cc([C@@H](C)N(CCCC(F)(F)c2ccccc2)C(=O)NC2(C(=O)O)CC2)cc(OCC)c1C(C)O (some centres unmarked) [Example 4-47] | 10.5 |
| CCOc1cc([C@@H](C)N(CCCCc2ccc(C)cc2)C(=O)NC2(C(=O)O)CC(F)(F)C2)cc(OCC)c1C [Example 4-17] | 9.68 |
| CCOc1c(C(C)=O)ccc([C@@H](C)N(CCO[C@H](C)c2ccccc2)C(=O)NC2(C(=O)O)CC2)c1C [Example 4-147] | 11.6 |
| COc1cc(C(C)N(CCCCc2ccccc2)C(=O)NC2(C(=O)O)CCC2)cc(OC)c1C (centres unmarked) [Example 1-23] | 13 |
| CCOc1cc([C@@H](C)N(CCO[C@@H](C)c2ccccc2)C(=O)N[C@]2(C(=O)O)C[C@@H](OC)C2)cc(OCC)c1C1CC1 [Example 4-128] | 1.08 |
| CCOc1cc([C@@H](C)N(CCC2Cc3ccccc3C2)C(=O)NC2(C(=O)O)CC(F)(F)C2)cc(OCC)c1C [Example 4-21, 1-({[(1R)-1-(3,5-Diethoxy-4-Methylphenyl)Ethyl][2-(2,3-Dihydro-1H-Inden-2-Yl)Ethyl]Carbamoyl}Amino)-3,3-Difluorocyclobutane-1-Carboxylic Acid] | 2.74 |
| CCOc1cc([C@@H](C)N(CCCCc2ccccc2)C(=O)N[C@]2(C(=O)O)C[C@H](OC)C2)cc(OCC)c1C(C)=O [Example 1-87, Cis-1-({[(1R)-1-(4-Acetyl-3,5-Diethoxyphenyl)Ethyl](4-Phenylbutyl) Carbamoyl}Amino)-3-Methoxycyclobutane-1-Carboxylic Acid] | 1.37 |

Second part, the compound after the results:

| IC50 [nM] | Structure (SMILES) |
| --- | --- |
| 0.882 | CCOc1cc(C(C)N(CCOCc2ccccc2)C(=O)NC2(C(=O)O)CC(OC)C2)cc(OCC)c1C1CC1 (centres unmarked) [Example 5-204] |
| 2.04 | CCOc1cc([C@@H](C)N(CCO[C@@H](C)c2ccccc2)C(=O)NC2(C(=O)O)CC(F)(F)C2)c(Cl)c(OCC)c1C(C)=O [Example 5-32] |
| 2.1 | CCOc1cc([C@@H](C)N(CCCCc2ccccc2)C(=O)NC2(C(=O)O)CC(OC)C2)c(Cl)c(OCC)c1C(C)=O (some centres unmarked) [Example 5-47] |
| 1.74 | COc1cc(C(C)N(CCOCc2ccccc2)C(=O)NC2(C(=O)O)CC(F)(F)C2)cc(OC)c1C1CC1 (centres unmarked) [Example 5-142] |
| 30.7 | COc1cc(C(C)N(CCOCc2ccccc2)C(=O)NC2(C(=O)O)CCC2)c(C)c(OC)c1C (centres unmarked) [Example 5-136] |
| 1.75 | CCOc1cc([C@@H](C)N(CCO[C@@H](C)c2ccccc2)C(=O)N[C@]2(C(=O)O)C[C@@H](OCC)C2)c(C)c(OCC)c1C [Example 5-82, trans-1-[([(1R)-1-(3,5-diethoxy-2,4-dimethylphenyl)ethyl]{2-[(1S)-1-phenylethoxy]ethyl}carbamoyl)amino]-3-ethoxycyclobutane-1-carboxylic acid] |
| 5.26 | CCOC1CC(NC(=O)N(CCOC(C)c2ccccc2)C(C)c2cc(OC)c(C3CC3)c(OC)c2)(C(=O)O)C1 (centres unmarked) [Example 5-167] |
| 10.3 | CCOc1cc([C@@H](C)N(CCC(F)(F)Cc2ccccc2)C(=O)NC2(C(=O)O)CC(OC)C2)c(Cl)c(OCC)c1C(C)=O (some centres unmarked) [Example 5-41] |
| 164 | CC(c1ccc(F)cc1)N(CCCCc1ccccc1)C(=O)NC1(C(=O)O)CC(F)(F)C1 (centres unmarked) [Example 5-6] |
| 1.86 | CCOc1cc([C@@H](C)N(CCO[C@@H](C)c2ccccc2)C(=O)N[C@]2(C(=O)O)C[C@@H](OCC)C2)c(C)c(OCC)c1C(C)=O [Example 5-118, Trans-1-[([(1R)-1-(4-Acetyl-3,5-Diethoxy-2-Methylphenyl)Ethyl]{2-[(1S)-1-Phenylethoxy]Ethyl}Carbamoyl)Amino]-3-Ethoxycyclobutane-1-Carboxylic Acid] |
| 0.809 | CCOc1cc(C(C)N(CCOCc2ccccc2)C(=O)NC2(C(=O)O)CCOCC2)c(Cl)c(OCC)c1C1CC1 (centres unmarked) [Example 5-225] |
| 344 | CCOc1cc(C(C)N(CCO[C@@H](C)c2ccccc2)C(=O)NC2(C(=O)OC)CC(OCC)C2)cc(OCC)c1C(C)=O (some centres unmarked) [Example 6-4] |
| 4.46 | COc1cc(C(C)N(CCO[C@@H](C)c2ccccc2)C(=O)NC2(C(=O)O)CC(F)(F)C2)c(C)c(OC)c1C (some centres unmarked) [Example 5-151] |
| 10.9 | CCOC1CC(NC(=O)N(CCOCc2ccccc2)[C@H](C)c2cc(OC)c(C(C)=O)c(OC)c2)(C(=O)O)C1 (some centres unmarked) [Example 5-125] |
| 38.4 | COc1cc(C(C)N(CCOCc2ccccc2)C(=O)NC2(C(=O)O)CC2)c(Cl)c(OC)c1C1CC1 (centres unmarked) [Example 5-129] |
| 54.2 | COc1cc(C(C)N(CCOCc2ccccc2)C(=O)NC2(C(=O)O)CCOCC2)cc(OC)c1C(C)=O (centres unmarked) [Example 5-172] |
| 4.55 | COc1cc(C(C)N(CCOCc2ccccc2)C(=O)NC2(C(=O)O)CCC2)c(C)c(OC)c1C(C)=O (centres unmarked) [Example 5-134] |
| 10.3 | CCO[C@H]1C[C@@](NC(=O)N(CCO[C@@H](C)c2ccccc2)C(C)c2cc(OC)c(C(C)=O)c(OC)c2Cl)(C(=O)O)C1 (some centres unmarked) [Example 5-128] |
| 4.18 | CCOc1cc([C@@H](C)N(CCO[C@H](C)c2ccccc2)C(=O)NC2(C(=O)O)CCOCC2)c(Cl)c(OCC)c1C(C)=O [Example 5-34] |
| 7.13 | COc1cc(Br)cc(C(C)N(CCCCc2ccccc2)C(=O)NC2(C(=O)O)CC(F)(F)C2)c1 (centres unmarked) [Example 5-22] |
| 3.38 | CCOc1cc(C(C)N(CCCCc2ccccc2)C(=O)NC2(C(=O)O)CC2)c(Cl)c(OCC)c1C(C)=O (centres unmarked) [Example 5-44] |
| 7.45 | CCOc1cc([C@@H](C)N(CCC(F)(F)Cc2ccccc2)C(=O)NC2(C(=O)O)CC(OC)C2)c(Cl)c(OCC)c1C(C)=O (some centres unmarked) [Example 5-42] |
| 0.761 | CCOc1cc(C(C)N(CCOCc2ccccc2)C(=O)NC2(C(=O)O)CC(OC)C2)cc(OCC)c1C1CC1 (centres unmarked) [Example 5-199] |
| 52.1 | CCOc1cc(C(C)N(CCCCc2ccccc2)C(=O)NC2(P(=O)(O)O)CCCC2)cc(OCC)c1C (single isomer, unassigned) [Example 8-1, [1-({[1-(3,5-Diethoxy-4-Methylphenyl)Ethyl](4-Phenylbutyl) Carbamoyl}Amino)Cyclopentyl]Phosphonic Acid] |
| 2.15 | CCOc1cc([C@@H](C)N(CCO[C@@H](C)c2ccccc2)C(=O)NC2(C(=O)O)CCC2)c(Cl)c(OCC)c1C(C)=O [Example 5-30] |
| 0.548 | CCOc1cc(C(C)N(CCOCc2ccccc2)C(=O)NC2(C(=O)O)CC(OC)C2)c(Cl)c(OCC)c1C1CC1 (centres unmarked) [Example 5-200] |
| 2.56 | CCOc1cc(C(C)N(CCO[C@@H](C)c2ccccc2)C(=O)NC2(C(=O)O)CC(OCC)C2)c(Cl)c(OCC)c1C1CC1 (some centres unmarked) [Example 5-216] |
